According to ChEMBL document CHEMBL5523738, “Lipid Trolling to Optimize A3 Adenosine Receptor-Positive Allosteric Modulators (PAMs)” (J Med Chem, 2024):
Calls of active or inactive are those of the source. The rule behind the calls is not given here.

How the values were obtained:
[1] = biological target: T1, Adenosine receptor A3 (Homo sapiens) (UniProt P0DMS8); experiment: Positive allosteric modulation of human A3 adenosine receptor transfected in HEK293 cell membranes assessed as potentiation of 5-(2-chloro-6-((3-iodobenzyl)amino)-9H-purin-9-yl)-3,4-dihydroxy-N-methyltetrahydrofuran-2-carboxamide induced [35S]GTP-gammaS binding by measuring fold increase in agonist …; conditions: Membrane, filed as positive allosteric modulator, dose 1.0 µM, time 3.0 hrs
T1 sequence (whole entry): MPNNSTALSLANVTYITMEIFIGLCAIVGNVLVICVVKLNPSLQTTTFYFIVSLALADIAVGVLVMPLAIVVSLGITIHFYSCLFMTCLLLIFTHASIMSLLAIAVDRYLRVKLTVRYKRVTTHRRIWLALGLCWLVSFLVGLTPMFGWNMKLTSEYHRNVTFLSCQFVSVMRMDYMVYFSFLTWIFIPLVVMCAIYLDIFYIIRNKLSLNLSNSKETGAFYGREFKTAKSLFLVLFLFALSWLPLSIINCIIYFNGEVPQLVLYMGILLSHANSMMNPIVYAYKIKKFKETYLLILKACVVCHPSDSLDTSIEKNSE

[2] = biological target: T1, Adenosine receptor A3 (Homo sapiens); experiment: Orthosteric antagonist activity at human A3 adenosine receptor transfected in HEK293 cell membranes assessed as inhibition of [125I]I-AB-MECA binding at equilibrium at 10 uM measured for 18 hrs by gamma counter method; conditions: Membrane, filed as antagonist
[3] = biological target: T2, Adenosine receptor A3 (Mus musculus) (UniProt Q61618); experiment: (§1) Positive allosteric modulation of full length mouse A3 adenosine receptor transfected in HEK293 cell membranes assessed as slow down of [125I]I-AB-MECA dissociation rate at 10 uM preincubated with radioligand for 3 hrs followed by NECA and compound addition and measured upto 180 mins by gamma counter method; conditions: Membrane, filed as positive allosteric modulator
T2 sequence (whole entry): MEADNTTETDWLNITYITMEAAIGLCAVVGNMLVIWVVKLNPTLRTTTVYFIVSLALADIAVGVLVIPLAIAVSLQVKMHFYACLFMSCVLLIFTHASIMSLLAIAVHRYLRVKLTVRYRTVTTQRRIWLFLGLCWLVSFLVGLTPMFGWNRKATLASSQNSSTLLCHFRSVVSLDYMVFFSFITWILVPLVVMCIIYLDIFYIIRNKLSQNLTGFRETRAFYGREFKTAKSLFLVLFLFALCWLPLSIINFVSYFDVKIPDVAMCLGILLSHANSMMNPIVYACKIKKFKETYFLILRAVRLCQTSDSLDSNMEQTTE

[4] = biological target: T2, Adenosine receptor A3 (Mus musculus); experiment: Orthosteric antagonist activity at full length mouse A3 adenosine receptor transfected in HEK293 cell membranes assessed as inhibition of [125I]I-AB-MECA binding at equilibrium at 10 uM by gamma counter method; conditions: Membrane, filed as antagonist
[5] = biological target: T1, Adenosine receptor A3 (Homo sapiens); experiment: Positive allosteric modulation of human A3 adenosine receptor transfected in HEK293 cell membranes assessed as slow down of [125I]I-AB-MECA dissociation rate at 10 uM preincubated with radioligand for 3 hrs followed by NECA and compound addition and measured after 60 mins by gamma counter method; conditions: Membrane, filed as positive allosteric modulator
[6] = biological target: T1, Adenosine receptor A3 (Homo sapiens); experiment: (§2) Positive allosteric modulation of human A3 adenosine receptor transfected in HEK293 cell membranes assessed as potentiation of 5-(2-chloro-6-((3-iodobenzyl)amino)-9H-purin-9-yl)-3,4-dihydroxy-N-methyltetrahydrofuran-2-carboxamide induced [35S]GTP-gammaS binding by measuring maximal efficacy of agonist at 0.001 uM pretreated for 1 hr followed by agonist addition and measured after 2 hrs by liquid scintillation counting method (reference value: 100 +/- 3%); conditions: Membrane, filed as positive allosteric modulator, time 3.0 hrs
[7] = biological target: T1, Adenosine receptor A3 (Homo sapiens); experiment: as §2, with “0.01” for “0.001”; conditions: Membrane, filed as positive allosteric modulator, time 3.0 hrs
[8] = biological target: T1, Adenosine receptor A3 (Homo sapiens); experiment: Positive allosteric modulation of human A3 adenosine receptor transfected in HEK293 cell membranes assessed as potentiation of MRS5698 induced ERK activation at 3 uM; conditions: Membrane
[9] = biological target: T1, Adenosine receptor A3 (Homo sapiens); experiment: Positive allosteric modulation of human A3 adenosine receptor transfected in HEK293 cell membranes assessed as potentiation of MRS5698 induced inhibition of cAMP formation by measuring maximal efficacy of agonist at 3 uM (reference value: 100%); format: functional; conditions: Membrane, filed as positive allosteric modulator
[10] = biological target: Adenosine receptor A1 (Homo sapiens) (UniProt P30542); experiment: Positive allosteric modulation of human A1 adenosine receptor transfected in HEK293 cells assessed as potentiation of […] induced inhibition of cAMP formation at 3 uM; format: functional, cell-based
[11] = biological target: T1, Adenosine receptor A3 (Homo sapiens); experiment: Positive allosteric modulation of human A3 adenosine receptor transfected in HEK293 cell membranes assessed as potentiation of MRS5698 induced inhibition of cAMP formation by measuring fold increase in agonist potency at 3 uM relative to control; format: functional; conditions: Membrane, filed as positive allosteric modulator
[12] = biological target: T1, Adenosine receptor A3 (Homo sapiens); experiment: Positive allosteric modulation of human A3 adenosine receptor transfected in HEK293 cell membranes assessed as potentiation of NECA induced ERK activation at 3 uM; conditions: Membrane
[13] = biological target: 5-hydroxytryptamine receptor 1E (Homo sapiens) (UniProt P28566); experiment: Binding affinity to 5-HT1E (unknown origin)
[14] = biological target: 5-hydroxytryptamine receptor 3A (Homo sapiens) (UniProt P46098); experiment: Binding affinity to 5-HT3 (unknown origin)
[15] = biological target: 5-hydroxytryptamine receptor 5A (Homo sapiens) (UniProt P47898); experiment: Binding affinity to 5-HT5A (unknown origin)
[16] = biological target: Alpha-1A adrenergic receptor (Homo sapiens) (UniProt P35348); experiment: Binding affinity to alpha1A adrenergic receptor (unknown origin)
[17] = biological target: Alpha-1D adrenergic receptor (Homo sapiens) (UniProt P25100); experiment: Binding affinity to alpha1D adrenergic receptor (unknown origin)
[18] = biological target: Beta-2 adrenergic receptor (Homo sapiens) (UniProt P07550); experiment: Binding affinity to beta2 adrenergic receptor (unknown origin)
[19] = biological target: Beta-3 adrenergic receptor (Homo sapiens) (UniProt P13945); experiment: Binding affinity to beta3 adrenergic receptor (unknown origin)
Homo sapiens = organism: Homo sapiens; experiment: Binding affinity to BZP receptor (unknown origin)
[20] = biological target: D(1A) dopamine receptor (Homo sapiens) (UniProt P21728); experiment: Binding affinity to D1 receptor (unknown origin)
[21] = biological target: D(2) dopamine receptor (Homo sapiens) (UniProt P14416); experiment: Binding affinity to D2 receptor (unknown origin)
[22] = biological target: Delta-type opioid receptor (Homo sapiens) (UniProt P41143); experiment: Binding affinity to DOR (unknown origin)
[23] = biological target: GABA-A receptor; anion channel (Homo sapiens) (UniProt P14867+P47870+P18507+P28472+P48169+Q99928+Q9UN88+P34903+O00591+O14764+Q8N1C3+P18505+P78334+P47869+P31644+Q16445); experiment: Binding affinity to GABA-A receptor (unknown origin); format: protein-complex assay
[24] = biological target: Histamine H2 receptor (Homo sapiens) (UniProt P25021); experiment: Binding affinity to histamine H2 receptor (unknown origin)
[25] = biological target: Kappa-type opioid receptor (Homo sapiens) (UniProt P41145); experiment: Binding affinity to KOR (unknown origin)
[26] = biological target: Muscarinic acetylcholine receptor M1 (Homo sapiens) (UniProt P11229); experiment: Binding affinity to M1 receptor (unknown origin)
[27] = biological target: Muscarinic acetylcholine receptor M2 (Homo sapiens) (UniProt P08172); experiment: Binding affinity to M2 receptor (unknown origin)
[28] = biological target: Muscarinic acetylcholine receptor M4 (Homo sapiens) (UniProt P08173); experiment: Binding affinity to M4 receptor (unknown origin)
[29] = biological target: Mu-type opioid receptor (Homo sapiens) (UniProt P35372); experiment: Binding affinity to MOR (unknown origin)
[30] = biological target: T2, Adenosine receptor A3 (Mus musculus); experiment: as §1, with “assessed as reduction in [125I]I-AB-MECA dissociation” for “assessed as slow down of [125I]I-AB-MECA dissociation”, “rate at 1 to 10 uM” for “rate at 10 uM”; conditions: Membrane, filed as positive allosteric modulator, dose 1-10 µM
[31] = biological target: T2, Adenosine receptor A3 (Mus musculus); experiment: as §1, with “reduction in” for “slow down of”, “0.1” for “10”; conditions: Membrane

Chain of Muscarinic acetylcholine receptor M1 (Homo sapiens) (P11229 whole entry): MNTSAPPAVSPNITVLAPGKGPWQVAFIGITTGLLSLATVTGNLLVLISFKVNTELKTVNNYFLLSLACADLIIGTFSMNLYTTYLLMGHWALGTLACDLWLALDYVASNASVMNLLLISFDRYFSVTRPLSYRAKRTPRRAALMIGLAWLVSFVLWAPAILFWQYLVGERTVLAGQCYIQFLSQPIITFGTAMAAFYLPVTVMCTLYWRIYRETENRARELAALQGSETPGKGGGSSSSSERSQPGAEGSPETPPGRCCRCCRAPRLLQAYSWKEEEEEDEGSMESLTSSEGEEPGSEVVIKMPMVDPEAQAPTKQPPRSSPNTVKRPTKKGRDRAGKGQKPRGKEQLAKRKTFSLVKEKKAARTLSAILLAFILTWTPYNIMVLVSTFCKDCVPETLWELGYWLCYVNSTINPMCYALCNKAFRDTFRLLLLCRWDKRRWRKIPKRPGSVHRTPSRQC
Chain of Alpha-1A adrenergic receptor (Homo sapiens) (P35348 whole entry): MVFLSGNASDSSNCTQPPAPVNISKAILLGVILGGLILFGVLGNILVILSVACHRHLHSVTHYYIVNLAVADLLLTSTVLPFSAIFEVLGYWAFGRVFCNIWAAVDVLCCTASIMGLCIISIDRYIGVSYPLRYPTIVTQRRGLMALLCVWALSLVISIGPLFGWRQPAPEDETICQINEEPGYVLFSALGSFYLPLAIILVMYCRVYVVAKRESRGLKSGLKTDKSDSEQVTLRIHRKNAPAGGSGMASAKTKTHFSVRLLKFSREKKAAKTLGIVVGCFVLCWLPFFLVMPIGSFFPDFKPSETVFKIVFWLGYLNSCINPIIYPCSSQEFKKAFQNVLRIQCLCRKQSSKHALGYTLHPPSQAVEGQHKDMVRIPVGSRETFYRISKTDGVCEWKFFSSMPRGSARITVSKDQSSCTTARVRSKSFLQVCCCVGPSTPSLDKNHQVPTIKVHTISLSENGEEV
Chain of Muscarinic acetylcholine receptor M2 (Homo sapiens) (P08172 whole entry): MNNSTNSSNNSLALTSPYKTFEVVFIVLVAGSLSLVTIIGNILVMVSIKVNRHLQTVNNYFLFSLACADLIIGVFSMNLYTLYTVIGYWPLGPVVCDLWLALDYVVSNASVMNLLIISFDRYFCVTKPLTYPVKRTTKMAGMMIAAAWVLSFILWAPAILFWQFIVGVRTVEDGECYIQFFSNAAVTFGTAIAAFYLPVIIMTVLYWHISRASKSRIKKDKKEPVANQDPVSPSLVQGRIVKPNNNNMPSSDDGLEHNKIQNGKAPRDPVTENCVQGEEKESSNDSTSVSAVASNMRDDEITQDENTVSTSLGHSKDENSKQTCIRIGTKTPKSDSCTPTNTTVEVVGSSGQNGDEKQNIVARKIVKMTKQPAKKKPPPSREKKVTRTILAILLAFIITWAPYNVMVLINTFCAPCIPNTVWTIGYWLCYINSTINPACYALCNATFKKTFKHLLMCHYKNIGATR
Chain of D(1A) dopamine receptor (Homo sapiens) (P21728 whole entry): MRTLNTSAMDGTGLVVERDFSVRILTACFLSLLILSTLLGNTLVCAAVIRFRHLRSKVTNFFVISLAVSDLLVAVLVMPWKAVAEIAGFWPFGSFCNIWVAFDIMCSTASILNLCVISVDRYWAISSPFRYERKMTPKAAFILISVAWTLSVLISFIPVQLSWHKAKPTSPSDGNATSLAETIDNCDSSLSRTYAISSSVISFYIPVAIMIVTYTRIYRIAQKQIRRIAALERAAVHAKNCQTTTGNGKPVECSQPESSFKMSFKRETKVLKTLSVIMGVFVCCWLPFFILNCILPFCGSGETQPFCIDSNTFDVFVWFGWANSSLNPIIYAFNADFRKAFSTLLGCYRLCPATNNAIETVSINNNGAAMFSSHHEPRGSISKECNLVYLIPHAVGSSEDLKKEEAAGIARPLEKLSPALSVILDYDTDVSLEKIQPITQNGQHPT
Chain of Delta-type opioid receptor (Homo sapiens) (P41143 whole entry): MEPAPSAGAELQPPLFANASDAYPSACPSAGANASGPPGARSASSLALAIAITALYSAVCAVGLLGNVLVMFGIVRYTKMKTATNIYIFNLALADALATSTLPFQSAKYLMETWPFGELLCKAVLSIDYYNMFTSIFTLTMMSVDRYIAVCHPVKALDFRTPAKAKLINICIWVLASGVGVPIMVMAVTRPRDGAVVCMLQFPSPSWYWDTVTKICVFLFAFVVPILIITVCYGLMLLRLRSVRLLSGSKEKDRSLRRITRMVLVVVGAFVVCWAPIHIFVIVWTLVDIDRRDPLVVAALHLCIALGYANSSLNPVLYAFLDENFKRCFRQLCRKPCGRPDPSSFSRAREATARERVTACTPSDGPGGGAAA
Chain of Histamine H2 receptor (Homo sapiens) (P25021 whole entry): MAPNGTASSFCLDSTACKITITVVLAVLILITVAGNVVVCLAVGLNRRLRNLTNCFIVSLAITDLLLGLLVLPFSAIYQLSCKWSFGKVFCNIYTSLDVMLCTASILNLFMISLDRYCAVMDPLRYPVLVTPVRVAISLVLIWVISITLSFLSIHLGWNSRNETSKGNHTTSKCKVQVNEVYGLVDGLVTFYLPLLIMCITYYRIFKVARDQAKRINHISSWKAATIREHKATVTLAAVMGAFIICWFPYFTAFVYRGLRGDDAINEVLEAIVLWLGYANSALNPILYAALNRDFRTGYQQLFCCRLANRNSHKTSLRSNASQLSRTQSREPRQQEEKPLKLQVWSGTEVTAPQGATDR
Chain of Mu-type opioid receptor (Homo sapiens) (P35372 whole entry): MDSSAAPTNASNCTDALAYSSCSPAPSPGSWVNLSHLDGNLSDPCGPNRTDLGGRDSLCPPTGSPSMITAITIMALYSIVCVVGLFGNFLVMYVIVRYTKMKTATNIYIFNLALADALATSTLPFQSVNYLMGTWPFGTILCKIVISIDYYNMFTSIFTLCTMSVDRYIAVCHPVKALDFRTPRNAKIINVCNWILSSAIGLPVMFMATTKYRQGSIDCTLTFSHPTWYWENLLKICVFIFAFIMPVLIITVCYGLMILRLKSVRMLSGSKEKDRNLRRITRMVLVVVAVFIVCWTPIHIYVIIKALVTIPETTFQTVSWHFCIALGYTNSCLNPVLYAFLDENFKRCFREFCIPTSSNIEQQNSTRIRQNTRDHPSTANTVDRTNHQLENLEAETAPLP
Chain of 5-hydroxytryptamine receptor 3A (Homo sapiens) (P46098 whole entry): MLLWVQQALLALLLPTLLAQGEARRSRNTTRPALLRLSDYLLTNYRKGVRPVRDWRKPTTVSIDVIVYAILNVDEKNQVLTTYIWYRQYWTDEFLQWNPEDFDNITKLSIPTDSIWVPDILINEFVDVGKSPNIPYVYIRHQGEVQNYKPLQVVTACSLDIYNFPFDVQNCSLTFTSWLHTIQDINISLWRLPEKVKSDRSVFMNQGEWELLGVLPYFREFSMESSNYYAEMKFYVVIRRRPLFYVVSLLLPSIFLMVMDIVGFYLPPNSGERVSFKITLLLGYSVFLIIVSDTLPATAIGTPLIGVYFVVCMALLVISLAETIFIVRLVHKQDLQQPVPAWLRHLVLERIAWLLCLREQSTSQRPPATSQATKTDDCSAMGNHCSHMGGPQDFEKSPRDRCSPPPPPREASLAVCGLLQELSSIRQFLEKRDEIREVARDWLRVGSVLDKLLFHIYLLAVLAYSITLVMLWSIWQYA
Chain of Muscarinic acetylcholine receptor M4 (Homo sapiens) (P08173 whole entry): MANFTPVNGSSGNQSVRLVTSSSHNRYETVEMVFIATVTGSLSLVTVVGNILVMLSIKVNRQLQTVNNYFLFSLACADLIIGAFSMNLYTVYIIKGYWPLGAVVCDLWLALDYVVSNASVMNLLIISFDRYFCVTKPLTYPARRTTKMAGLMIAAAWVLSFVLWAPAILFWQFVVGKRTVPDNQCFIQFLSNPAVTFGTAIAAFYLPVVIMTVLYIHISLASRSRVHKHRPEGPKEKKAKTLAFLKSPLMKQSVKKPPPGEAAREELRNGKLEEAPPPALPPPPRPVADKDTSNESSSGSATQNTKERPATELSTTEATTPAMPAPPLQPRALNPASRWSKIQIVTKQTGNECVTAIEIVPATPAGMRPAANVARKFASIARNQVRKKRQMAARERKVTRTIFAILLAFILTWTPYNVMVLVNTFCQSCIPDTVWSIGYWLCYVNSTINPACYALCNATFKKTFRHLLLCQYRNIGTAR
Chain of 5-hydroxytryptamine receptor 1E (Homo sapiens) (P28566 whole entry): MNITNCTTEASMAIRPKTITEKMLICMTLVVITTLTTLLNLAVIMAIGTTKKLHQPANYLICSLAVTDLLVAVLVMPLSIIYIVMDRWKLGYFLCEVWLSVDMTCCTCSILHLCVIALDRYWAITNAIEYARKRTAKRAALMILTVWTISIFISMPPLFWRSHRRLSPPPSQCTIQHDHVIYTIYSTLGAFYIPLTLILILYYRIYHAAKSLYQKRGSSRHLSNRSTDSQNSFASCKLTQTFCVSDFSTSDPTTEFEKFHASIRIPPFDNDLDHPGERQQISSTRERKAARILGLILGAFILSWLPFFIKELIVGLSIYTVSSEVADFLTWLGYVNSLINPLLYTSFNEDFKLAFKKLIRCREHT
Chain of Beta-3 adrenergic receptor (Homo sapiens) (P13945 whole entry, looked up): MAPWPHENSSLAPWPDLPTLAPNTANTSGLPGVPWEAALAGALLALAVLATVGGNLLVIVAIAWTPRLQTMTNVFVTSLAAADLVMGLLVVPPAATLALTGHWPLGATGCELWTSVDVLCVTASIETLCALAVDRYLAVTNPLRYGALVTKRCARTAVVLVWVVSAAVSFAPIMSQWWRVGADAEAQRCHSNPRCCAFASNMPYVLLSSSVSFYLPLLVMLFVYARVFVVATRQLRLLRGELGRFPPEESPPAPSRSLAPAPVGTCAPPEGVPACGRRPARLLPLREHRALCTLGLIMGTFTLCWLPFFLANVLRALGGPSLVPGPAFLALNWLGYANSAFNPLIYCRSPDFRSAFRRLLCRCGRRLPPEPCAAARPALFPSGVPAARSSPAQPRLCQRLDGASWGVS

CCCC(CCC)c1nc2c(Nc3ccc(I)cc3)nc3ccccc3c2n1Cc1ccccc1
fold change (FC) [1]: 2.5
Activity [2]: Active

CCCC(CCC)c1nc2c(Nc3ccc(C#CCCCCCCCCN(C)C)cc3)nc3ccccc3c2[nH]1
fold change (FC) [1]: 4

CCCC(CCC)c1nc2c(Nc3ccc(C#CCCCCCCN)cc3)nc3ccccc3c2[nH]1
Activity [3]: Active
Activity [4]: Active

CCCC(CCC)c1nc2c(Oc3ccccc3)nc3ccccc3c2[nH]1
Activity [5]: Active
Activity [2]: Active

CCCC(CCC)c1nc2c(Nc3ccc(C#CCCCCCCCCN)cc3)nc3ccccc3c2[nH]1
Emax [6]: 112%
Emax [7]: 157%
fold change (FC) [1]: 4
Activity [8]: inactive
Emax [9]: 117%
Activity [10]: inactive
fold change (FC) [11]: 9
Activity [12]: inactive
Activity [13]: inactive
Activity [14]: inactive
Activity [15]: inactive
Activity [16]: inactive
Activity [17]: inactive
Activity [18]: inactive
Activity [19]: inactive
Activity (Homo sapiens): inactive
Activity [20]: inactive
Activity [21]: inactive
Activity [22]: inactive
Activity [23]: inactive
Activity [24]: inactive
Activity [25]: inactive
Activity [26]: inactive
Activity [27]: inactive
Activity [28]: inactive
Activity [29]: inactive
Activity [30]: Active
Activity [31]: inactive
Activity [4]: Active
Activity [5]: Active

OCCn1c(C2CCCCC2)nc2c(Nc3ccc(Cl)c(Cl)c3)nc3ccccc3c21
Activity [2]: Active

CCCC(CCC)c1nc2c(Nc3cccc(C#CCCCCCCCCN)c3)nc3ccccc3c2[nH]1
Activity [3]: Active

CCCC(CCC)c1nc2c(Nc3ccc(C#CCCCCCCCCNCCCCN)cc3)nc3ccccc3c2[nH]1
fold change (FC) [1]: 12

CCCC(CCC)c1nc2c(Nc3ccc(C#CCCCCCCCN)cc3)nc3ccccc3c2[nH]1
fold change (FC) [1]: 7.4
Activity [3]: Active
Activity [4]: Active

CCCC(CCC)c1nc2c(Nc3ccc(/C=C/CCCCCCCCN)cc3)nc3ccccc3c2[nH]1
fold change (FC) [1]: 2.5

Clc1ccc(Oc2nc3ccccc3c3[nH]c(C4CCCCC4)nc23)cc1Cl
Activity [5]: Active
Activity [2]: Active

CCCC(CCC)c1nc2c(Nc3ccc(C#CCCCCCCCCCN)cc3)nc3ccccc3c2[nH]1
fold change (FC) [1]: 4
Activity [13]: inactive
Activity [14]: inactive
Activity [15]: inactive
Activity [16]: inactive
Activity [17]: inactive
Activity [18]: inactive
Activity [19]: inactive
Activity (Homo sapiens): inactive
Activity [20]: inactive
Activity [21]: inactive
Activity [22]: inactive
Activity [23]: inactive
Activity [24]: inactive
Activity [25]: inactive
Activity [26]: inactive
Activity [27]: inactive
Activity [28]: inactive
Activity [29]: inactive
Activity [3]: Active
Activity [4]: Active

CCCC(CCC)c1nc2c(Nc3ccc(I)cc3)nc3ccccc3c2[nH]1
Activity [3]: Active

Clc1ccc(Sc2nc3ccccc3c3[nH]c(C4CCCCC4)nc23)cc1Cl
Activity [5]: Active
Activity [2]: Active

CCCC(CCC)c1nc2c(Nc3ccc(C#CCCCCCN)cc3)nc3ccccc3c2[nH]1
Activity [3]: Active
Activity [4]: Active
